What all share (assay type): cell-based
The test system of assay [1] is K. pneumoniae strain MP-548. Description: Broth dilution MIC determination (CLSI) against K. pneumoniae strain MP-548. Conditions: Klebsiella pneumoniae, MP548. An outline of the steps: (§1)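 MICs of the macrolides were determined by standard CLSI broth dilution. Values are binned: +++ for ≤4 mg/L, ++ for ≥8 and <32 mg/L, + for ≥32 mg/L.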
Background: In broth dilution the organism is exposed to a series of concentrations in liquid medium.

In assay [2] the test system is A. baumannii strain MP-15. Kind of assay: Broth dilution MIC determination (CLSI) against A. baumannii strain MP-15. Conditions: Acinetobacter baumannii, MP15. Put shortly: as §1
Assay [3] concerns S. aureus strain MP-12. Kind of assay: Broth dilution MIC determination (CLSI) against S. aureus strain MP-12. Conditions: Staphylococcus aureus, MP12, strain MP-12. An outline of the steps: as §1
Assay [4] has as its system P. aeruginosa strain MP-3. Kind of assay: Broth dilution MIC determination (CLSI) against P. aeruginosa strain MP-3. The note with it: Pseudomonas aeruginosa, MP3. An outline of the steps: as §1
The test system of assay [5] is E. coli strain MP-4. Kind of assay: Broth dilution MIC determination (CLSI) against E. coli strain MP-4. The note with it: Escherichia coli, MP4. Put shortly: as §1

Converted amounts (≈) assume the structure as drawn.

By MIC is commonly meant the smallest concentration in the dilution series that meets the test's criterion for growth inhibition. Higher therefore signals a need for much substance. For the compound `CC[C@H]1OC(=O)C(C)C(=O)[C@H](C)[C@@H](O[C@@H]2O[C@H]([C@H](C)N(C)C)CC(N(C)C)[C@H]2O)[C@](C)(OC)C[C@@H](C)CN[C@H](C)[C@H]2NC(=O)O[C@@]21C` (stereo partly drawn) [Compound 175, 3-Descladinosyl-3-oxo-6-O-methyl-N9a-desmethyl-11,12-dideoxy-12,11-(oxycarbonylimino)-6′-((S)-(dimethylamino)ethyl) Azithromycin], the MIC is 8 to 32 mg/L (≈ 11.9 to 47.7 µM) in assay [1]; no less than 32 mg/L in assay [2]; no less than 32 mg/L in assay [3]; no less than 32 mg/L in assay [4]; no more than 4 mg/L in assay [5].
With `CC[C@H]1OC(=O)[C@@](C)(F)C(=O)[C@H](C)[C@@H](O[C@@H]2OC(COCCO)CC(N(C)C)C2O)[C@](C)(OC)C[C@@H](C)C(=O)[C@H](C)[C@H]2NC(=O)O[C@@]21C` (some centres unmarked) [Compound 103], the MIC is no less than 32 mg/L in assay [1]; no less than 32 mg/L in assay [2]; no more than 4 mg/L in assay [3]; no less than 32 mg/L in assay [4]; no less than 32 mg/L in assay [5].
As to `CC[C@H]1OC(=O)[C@]2(C)CCO[C@](C)(C[C@@H](C)CN[C@H](C)[C@H]3NC(=O)O[C@@]31C)[C@H](O[C@@H]1O[C@H](CNCc3cccnc3)C[C@H](N(C)C)[C@H]1O)[C@@H](C)C2=O` [Compound 200], the MIC in assay [1] is no less than 32 mg/L; in assay [2], no less than 32 mg/L; in assay [3], 8 to 32 mg/L (≈ 10.9 to 43.7 µM); in assay [4], no less than 32 mg/L; in assay [5] it was 8 to 32 mg/L (≈ 10.9 to 43.7 µM).
Take `CC[C@H]1OC(=O)C(C)C(=O)[C@H](C)[C@@H](O[C@@H]2OC(CNCc3ccccc3F)CC(N(C)C)C2O)[C@](C)(OC)C[C@@H](C)CN[C@H](C)[C@H]2NC(=O)O[C@@]21C` (some centres unmarked) [Compound 29]: the MIC in assay [1] is no less than 32 mg/L; in assay [2] it was no less than 32 mg/L; in assay [3] it was no less than 32 mg/L; in assay [4] it was no less than 32 mg/L; in assay [5] it was no more than 4 mg/L.
With `CC[C@H]1OC(=O)C(C)C(=O)[C@H](C)[C@@H](OC2OC(C(=O)N(C)C3CC3)CC(N(C)C)C2O)[C@](C)(OC)C[C@@H](C)CN[C@H](C)[C@H]2NC(=O)O[C@@]21C` (some centres unmarked) [Compound 168, 3-Descladinosyl-3-oxo-6-O-methyl-N9a-desmethyl-11,12-dideoxy-12,11-(oxycarbonylimino)-5′-desmethyl-5′-(N,N-cyclopropyl(methyl)carboxamido) Azithromycin], the MIC in assay [1], in assay [2], in assay [3], in assay [4] and in assay [5] was no less than 32 mg/L in each case.
Regarding `CC[C@H]1OC(=O)[C@@]2(C)CCO[C@](C)(C[C@@H](C)CN[C@H](C)[C@H]3NC(=O)O[C@@]31C)[C@H](O[C@@H]1O[C@H](CN3CCCCC3)C[C@H](N(C)C)[C@H]1O)[C@@H](C)C2=O` [Compound 199], the MIC in assay [1], in assay [2], in assay [3], in assay [4] and in assay [5] was no less than 32 mg/L each time.
`CC[C@H]1OC(=O)C(C)C(=O)[C@H](C)[C@@H](O[C@@H]2OC(CN(C)Cc3ccc(F)cc3)CC(N(C)C)C2O)[C@](C)(OC)C[C@@H](C)CN[C@H](C)[C@H]2NC(=O)O[C@@]21C` (some centres unmarked) [Compound 34]: the MIC is no less than 32 mg/L in assay [1]; no less than 32 mg/L in assay [2]; no less than 32 mg/L in assay [3]; no less than 32 mg/L in assay [4]; 8 to 32 mg/L (≈ 10.7 to 42.6 µM) in assay [5].
As for `CC[C@H]1OC(=O)C(C)C(=O)[C@H](C)[C@@H](OC2OC(CNC)CC(N(C)C)C2O)[C@](C)(OC)C[C@@H](C)CN[C@H](C)[C@H]2NC(=O)O[C@@]21C` (some centres unmarked) [Compound 106, 3-Descladinosyl-3-oxo-6-O-methyl-N9a-desmethyl-11,12-dideoxy-12,11-(oxycarbonylimino)-6′-methylamino Azithromycin], the MIC is no less than 32 mg/L in assay [1]; no less than 32 mg/L in assay [2]; no less than 32 mg/L in assay [3]; no less than 32 mg/L in assay [4]; 8 to 32 mg/L (≈ 12.4 to 49.8 µM) in assay [5].
As for `CC[C@H]1OC(=O)C(C)C(=O)[C@H](C)[C@@H](OC2OC(CN3CC(F)(F)C3)CC(N(C)C)C2O)[C@](C)(OC)C[C@@H](C)CN[C@H](C)[C@H]2NC(=O)O[C@@]21C` (some centres unmarked) [Compound 139, 3-Descladinosyl-3-oxo-6-O-methyl-N9a-desmethyl-11,12-dideoxy-12,11-(oxycarbonylimino)-6′-(3″,3″-difluoroazetidinyl) Azithromycin], the MIC in assay [1] was 8 to 32 mg/L (≈ 11.3 to 45.4 µM); in assay [2], 8 to 32 mg/L (≈ 11.3 to 45.4 µM); in assay [3] it was 8 to 32 mg/L (≈ 11.3 to 45.4 µM); in assay [4], no less than 32 mg/L; in assay [5], no more than 4 mg/L.
`CC[C@H]1OC(=O)[C@]2(C)CC/C(=N\O)CO[C@](C)(C[C@@H](C)CN[C@H](C)[C@H]3NC(=O)O[C@@]31C)[C@H](OC1OC(C)CC(N(C)C)C1O)[C@@H](C)C2=O` (some centres unmarked) [Compound 228]: the MIC in assay [1], in assay [2], in assay [3], in assay [4] and in assay [5] was no less than 32 mg/L each time.
For the compound `CC[C@H]1OC(=O)C(C)C(=O)[C@H](C)[C@@H](O[C@@H]2OC(CNCc3nccn3C)CC(N(C)C)C2O)[C@](C)(OC)C[C@@H](C)CN[C@H](C)[C@H]2NC(=O)O[C@@]21C` (some centres unmarked) [Compound 25], the MIC in assay [1], in assay [2], in assay [3], in assay [4] and in assay [5] was no less than 32 mg/L throughout.
On to `CC[C@H]1OC(=O)[C@]2(C)CCC(=O)CO[C@](C)(C[C@@H](C)CN[C@H](C)[C@H]3NC(=O)O[C@@]31C)[C@H](OC1OC(C)CC(N(C)C)C1O)[C@@H](C)C2=O` (some centres unmarked) [Compound 226], for which the MIC in assay [1], in assay [2], in assay [3], in assay [4] and in assay [5] was no less than 32 mg/L each time.
On to `CC[C@H]1OC(=O)C(C)C(=O)[C@H](C)[C@@H](OC2OC(CN3CCC(F)(F)CC3)CC(N(C)C)C2O)[C@](C)(OC)C[C@@H](C)CN[C@H](C)[C@H]2NC(=O)O[C@@]21C` (some centres unmarked) [Compound 144, 3-Descladinosyl-3-oxo-6-O-methyl-N9a-desmethyl-11,12-dideoxy-12,11-(oxycarbonylimino)-6′-(4″,4″-difluoropiperidin-1″-yl) Azithromycin], for which the MIC was 8 to 32 mg/L (≈ 10.9 to 43.7 µM) in assay [1]; 8 to 32 mg/L (≈ 10.9 to 43.7 µM) in assay [2]; 8 to 32 mg/L (≈ 10.9 to 43.7 µM) in assay [3]; no less than 32 mg/L in assay [4]; no more than 4 mg/L in assay [5].
`CC[C@H]1OC(=O)C(C)C(=O)[C@H](C)[C@@H](OC2OC(CN(C)CCOC)CC(N(C)C)C2O)[C@](C)(OC)C[C@@H](C)CN[C@H](C)[C@H]2NC(=O)O[C@@]21C` (some centres unmarked) [Compound 131, 3-Descladinosyl-3-oxo-6-O-methyl-N9a-desmethyl-11,12-dideoxy-12,11-(oxycarbonylimino)-6′-[N-(methyl)-2-methoxyethylamino]Azithromycin]: the MIC is 8 to 32 mg/L (≈ 11.4 to 45.7 µM) in assay [1]; no less than 32 mg/L in assay [2]; no less than 32 mg/L in assay [3]; no less than 32 mg/L in assay [4]; no more than 4 mg/L in assay [5].
For `CC[C@H]1OC(=O)C(C)C(=O)[C@H](C)[C@@H](OC2OC(CN(C)C34CC(C3)C4)CC(N(C)C)C2O)[C@](C)(OC)C[C@@H](C)CN[C@H](C)[C@H]2NC(=O)O[C@@]21C` (some centres unmarked) [Compound 152, 3-Descladinosyl-3-oxo-6-O-methyl-N9a-desmethyl-11,12-dideoxy-12,11-(oxycarbonylimino)-6′-bicyclo[1.1.1]pentanylmethylamino Azithromycin], the MIC in assay [1] is no less than 32 mg/L; in assay [2], 8 to 32 mg/L (≈ 11.3 to 45.1 µM); in assay [3], 8 to 32 mg/L (≈ 11.3 to 45.1 µM); in assay [4], no less than 32 mg/L; in assay [5], no less than 32 mg/L.
Consider `CC[C@H]1OC(=O)[C@@]2(C)CCO[C@](C)(C[C@@H](C)CN[C@H](C)[C@H]3NC(=O)O[C@@]31C)[C@H](O[C@@H]1O[C@H](CNCc3cccnc3)C[C@H](N(C)C)[C@H]1O)[C@@H](C)C2=O` [Compound 201], for which the MIC in assay [1], in assay [2], in assay [3], in assay [4] and in assay [5] was no less than 32 mg/L each time.
With `CC[C@H]1OC(=O)C(C)C(=O)[C@H](C)[C@@H](O[C@@H]2OC(CN[C@H](C)c3ccc(F)cc3)CC(N(C)C)C2O)[C@](C)(OC)C[C@@H](C)CN[C@H](C)[C@H]2NC(=O)O[C@@]21C` (some centres unmarked) [Compound 33], the MIC in assay [1] is no less than 32 mg/L; in assay [2], no less than 32 mg/L; in assay [3], no less than 32 mg/L; in assay [4], no less than 32 mg/L; in assay [5], no more than 4 mg/L.
Consider `CC[C@H]1OC(=O)C(C)C(=O)[C@H](C)[C@@H](O[C@@H]2O[C@H](CNCC3CC3)CC(N(C)C)[C@H]2O)[C@](C)(OC)C[C@@H](C)CN(C)[C@H](C)[C@H]2NC(=O)O[C@@]21C` (some centres unmarked) [Compound 162, 3-Descladinosyl-3-oxo-6-O-methyl-11,12-dideoxy-12,11-(oxycarbonylimino)-6′-cyclopropylmethylamino Azithromycin], for which the MIC is 8 to 32 mg/L (≈ 11.5 to 45.9 µM) in assay [1]; no less than 32 mg/L in assay [2]; no less than 32 mg/L in assay [3]; no less than 32 mg/L in assay [4]; no more than 4 mg/L in assay [5].
In the case of `CC[C@H]1OC(=O)C(C)C(=O)[C@H](C)[C@@H](O[C@@H]2OC(CNCc3cccc(F)c3)CC(N(C)C)C2O)[C@](C)(OC)C[C@@H](C)CN[C@H](C)[C@H]2NC(=O)O[C@@]21C` (some centres unmarked) [Compound 30], the MIC is no less than 32 mg/L in assay [1]; no less than 32 mg/L in assay [2]; no less than 32 mg/L in assay [3]; no less than 32 mg/L in assay [4]; no more than 4 mg/L in assay [5].

Values taken from patent US11673910B2, “Macrolides with modified desosamine sugars and uses thereof” (Zikani Therapeutics, Inc., priority 2017, dated 2023).
